Some test systems named below: SF-268 CNS; OVCAR-5 ovarian; M14 melanoma; 786-0 renal; SK-MEL-5 melanoma; EKVX NSCLC; IGROV1 ovarian; NCI-H522 lung; RXF 393 renal; K-562 leukemia.
Common to all, as to experiment: NCI anticancer screen, dose series, 48 h

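All cell lines were grown in 96-well plates and treated with compound for 48 hours. Abbreviation: GI50, concentration required for 50% inhibition of growth. TGI is the concentration that stops growth completely.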

On to `C[C@@H]1CN(CC(=O)N2CC(C)(C)c3nc(CO)c(Cc4ccc(F)cc4)cc32)[C@@H](CN2CCOC[C@H]2C)CN1`, for which the GI50 was 64.1 µM with SF-268 CNS; greater than 100 µM with OVCAR-5 ovarian; 18.6 µM in the test on M14 melanoma; 47.4 µM in the test with 786-0 renal; 15 µM in the test on SK-MEL-5 melanoma; 96.7 µM in the test on EKVX NSCLC. Further, the GI50 in the test with IGROV1 ovarian is greater than 100 µM; in the test with NCI-H522 lung it was 21.8 µM. Further, the TGI was greater than 100 µM in the test on SF-268 CNS; greater than 100 µM with OVCAR-5 ovarian; 37.9 µM with M14 melanoma; greater than 100 µM in the test on 786-0 renal; 28.3 µM in the test with SK-MEL-5 melanoma; greater than 100 µM with EKVX NSCLC. In addition, the TGI in the test with IGROV1 ovarian was greater than 100 µM; in the test on NCI-H522 lung, 71.6 µM.
As for `COc1cccc(C2c3cc4c(cc3OC(O)(CO)C2C(=O)O)OCO4)c1` (stereo not given) (tested in a mixture with another compound), the TGI in the test with RXF 393 renal, in the test with SF-268 CNS, in the test on OVCAR-5 ovarian, in the test on M14 melanoma, in the test on 786-0 renal and in the test on SK-MEL-5 melanoma was greater than 100 µM in each case. In addition, the TGI with EKVX NSCLC, in the test on IGROV1 ovarian and in the test with K-562 leukemia was greater than 100 µM in each case.
Turning to `O=NNc1nc(-c2cccnc2)nc2ccccc12`, the TGI with SF-268 CNS, with OVCAR-5 ovarian, in the test with M14 melanoma, in the test with 786-0 renal, in the test on SK-MEL-5 melanoma and in the test with EKVX NSCLC was greater than 100 µM throughout. The TGI with IGROV1 ovarian, with NCI-H522 lung and in the test with K-562 leukemia was greater than 100 µM throughout.
For `CC/C=C\C/C=C\C/C=C\CCCCCCCC(=O)OCC`, the TGI in the test with SF-268 CNS, in the test with OVCAR-5 ovarian, in the test on M14 melanoma, in the test on 786-0 renal, with SK-MEL-5 melanoma and in the test on EKVX NSCLC was greater than 100 µM each time. Further, the TGI with IGROV1 ovarian and with K-562 leukemia was greater than 100 µM each time.
For the compound `CCOP(=O)(OCC)C(NC(c1ccccc1)c1ccccc1)c1cccc2ccccc12` (stereo not given), the GI50 with SF-268 CNS was 5.75 µM; with OVCAR-5 ovarian, 14.3 µM; with M14 melanoma, 3.03 µM; in the test on 786-0 renal it was 2.9 µM; in the test on SK-MEL-5 melanoma, 14.9 µM; with EKVX NSCLC, 16.2 µM. Besides, the GI50 was 23.6 µM in the test with IGROV1 ovarian, 7.96 µM in the test with NCI-H522 lung and 3.99 µM in the test on K-562 leukemia. The TGI in the test with SF-268 CNS worked out at 21.2 µM; in the test on OVCAR-5 ovarian, 34.4 µM; with M14 melanoma it was 7.71 µM; in the test on 786-0 renal it was 9.64 µM; in the test with SK-MEL-5 melanoma it was 32.2 µM; in the test with EKVX NSCLC, 35.5 µM. For the same compound, the results for the TGI with IGROV1 ovarian, in the test on NCI-H522 lung and with K-562 leukemia were greater than 100 µM, greater than 100 µM and 21 µM, respectively.
In the case of `S=c1[nH]c2ccc(Br)cc2c(=S)n1-c1ccccc1`, the TGI is greater than 100 µM in the test on SF-268 CNS; greater than 100 µM with OVCAR-5 ovarian; 98.6 µM with M14 melanoma; 96.8 µM in the test with 786-0 renal; 35.5 µM in the test with SK-MEL-5 melanoma; greater than 100 µM in the test on EKVX NSCLC. For the same compound, the TGI with IGROV1 ovarian was 89.1 µM; with K-562 leukemia, greater than 100 µM.
For `CCC12CCCC(=O)N1C(CO)C(c1ccccc1)O2` (stereo not given), the TGI with RXF 393 renal, in the test on SF-268 CNS, in the test with OVCAR-5 ovarian, with 786-0 renal, in the test on SK-MEL-5 melanoma and in the test on EKVX NSCLC was greater than 100 µM throughout. In addition, the TGI in the test with IGROV1 ovarian and with K-562 leukemia was greater than 100 µM throughout.
As to `CC(=O)n1c2ccccc2c2nc3nc(Oc4ccc(C)cc4)c4ccccc4c3cc21`, the TGI in the test on SF-268 CNS, in the test with OVCAR-5 ovarian, in the test on M14 melanoma, with 786-0 renal, in the test with SK-MEL-5 melanoma and with EKVX NSCLC was greater than 100 µM each time. Also, the TGI with IGROV1 ovarian, in the test with NCI-H522 lung and with K-562 leukemia was greater than 100 µM throughout.
For the compound `CC(C)NC(=O)OCCS(=O)c1c(Cl)c(Cl)nn1C` (stereo not given), the TGI is greater than 100 µM in the test on SF-268 CNS; greater than 100 µM in the test with OVCAR-5 ovarian; 39.4 µM with M14 melanoma; 72.6 µM in the test on 786-0 renal; greater than 100 µM with SK-MEL-5 melanoma; greater than 100 µM in the test on EKVX NSCLC. The TGI is greater than 100 µM in the test with IGROV1 ovarian, 41.1 µM in the test on NCI-H522 lung and greater than 100 µM in the test with K-562 leukemia.
Regarding `Nc1nc2c(c(=O)[nH]1)CN(c1ccc(S(N)(=O)=O)cc1)CN2`, the TGI in the test with SF-268 CNS, in the test on OVCAR-5 ovarian, in the test with M14 melanoma, in the test with 786-0 renal, with SK-MEL-5 melanoma and in the test on EKVX NSCLC was greater than 100 µM in each case. Moreover, the TGI in the test on IGROV1 ovarian, in the test on NCI-H522 lung and in the test on K-562 leukemia was greater than 100 µM in each case.
For `O=c1cc(-c2ccccc2)c2cc3c(=O)ccoc3cc2o1`, the TGI in the test on RXF 393 renal, in the test on SF-268 CNS, in the test with M14 melanoma, with 786-0 renal, in the test on SK-MEL-5 melanoma and in the test with EKVX NSCLC was greater than 100 µM throughout. This compound displayed a TGI with K-562 leukemia greater than 100 µM.

The values are drawn from PubChem BioAssay (NCI).
